Patent US7026489B2, “Ketol fatty acid derivative and plant growth regulating agents” (Shiseido Company, Ltd., priority 2000, dated 2006)

Columns and labels:
[1] = test system: morning glory (Pharbitis nil); assay: Flower bud formation promoting activity of compounds (4) and (5) in morning glory (Example 2); type: in vivo; conditions: sprayed onto cotyledons, 14 hours dark, counted on day 14; FIG. 3
Method: Seeds (9 g) of morning glory (variety name: Murasaki) were treated with concentrated sulfuric acid for 20 minutes, and then left to stand overnight under running water. Subsequently, the treated seeds were placed on wet sea sand for 24 hours, hilum side up, to thereby form roots. The seeds having roots were planted in sea sand to a depth of 1.5 cm to 2.0 cm, followed by culturing under continuous light (for approximately 5 days). The whole plants of the morning glory which had put forth leaves through the culture were transferred to a culture solution [KNO3 (250 mg), NH4NO3 (250 mg), KH2PO4 (250 mg), MgSO4.7H2O (250 mg), MnSO4.4H2O (1 mg), Fe-citrate n-hydrate (6 mg), H3BO3 (2 mg), CuSO4.5H2O (0.1 mg), ZnSO4.7H2O (0.2 mg), Na2MoO4.2H2O (0.2 mg), Ca(H2PO4)2.2H2O (250 mg)/distilled water (1,000 mL)]. Compound (4) or compound (5) was sprayed onto the cotyledons of the above morning glory plants at a spray volume of 2 mL per eight plants. The morning glory plants were subjected to treatment in the dark (14 hours), then raised under the application of continuous light at 26° C. for 14 days. On day 14, the number of flower buds of the morning glory plants was counted. As a control, distilled water was sprayed onto a group of plants. Compound (4) was sprayed at a concentration of 100 μM, whereas compound (5) was sprayed at concentrations of 0.001 μM to 100 μM.

[2] = test system: morning glory (Pharbitis nil); assay: Flower bud formation promoting activity of ketol fatty acid derivative II in morning glory (Example 6); type: in vivo; conditions: for flower bud formation promoting effect (number of flower buds per plant, % of control): sprayed at 1 μM onto cotyledons, 14 hours dark, counted on day 16, compound (4) at 1 μM and 100 μM, FIG. 6
Method: Seeds (9 g) of morning glory (variety name: Murasaki) were treated with concentrated sulfuric acid for 20 minutes, and then left to stand overnight under running water. Subsequently, the treated seeds were placed on wet sea sand for 24 hours, hilum side up, to thereby form roots. The seeds having roots were planted in sea sand to a depth of 1.5 cm to 2.0 cm, followed by culturing under continuous light (for approximately 5 days). The whole plants of the morning glory which had put forth leaves through the culture were transferred to a culture solution [KNO3 (250 mg), NH4NO3 (250 mg), KH2PO4 (250 mg), MgSO4.7H2O (250 mg), MnSO4.4H2O (1 mg), Fe-citrate n-hydrate (6 mg), H3BO3 (2 mg), CuSO4.5H2O (0.1 mg), ZnSO4.7H2O (0.2 mg), Na2MoO4.2H2O (0.2 mg), Ca(H2PO4)2.2H2O (250 mg)/distilled water (1,000 mL)]. While ketol fatty acid derivative (9) of the invention, which was obtained in the above Example 5, or test compounds such as Compound (4) was directly sprayed onto the cotyledons of the above morning glory plants grown in the culture system, the morning glory plants were subjected to treatment in the dark, then raised under the application of continuous light at 26° C. for 16 days. On day 16, the number of flower buds of the morning glory plants was counted (8 plants/group). The treatment in the dark was performed overnight (for 14 hours). In FIG. 6, along the X axis, (a) represents a control (a group of plants sprayed with distilled water), (b) represents a group of plants sprayed with ketol fatty acid derivative (9) (1 μM), (c) represents a group of plants sprayed with compound (4) (1 μM) and L-isoleusine (1 μM), (d) represents a group of plants sprayed with L-isoleusine (1 μM), (e) represents a group of plants sprayed with compound (4) (1 μM), and (f) represents a group of plants sprayed with compound (4) (100 μM). The Y axis represents flower bud formation promoting activity (shown as the percentage of each group to the control group (=100%) in terms of the number of flower buds per plant). […]

a broad range of plants = conditions: alone or in combination with norepinephrine; cited from earlier work

With `CC/C=C\C[C@H]1[C@H](CC(=O)[C@H](O)CCCCCCCC(=O)O)O[C@@]2(O)CC13C(=CC2=O)NC[C@H]3O` [compound (5), (9R)-11-{(2′S,8′S,10′S,11′R)-2′,8′-dihydroxy-7′-oxo-11′-[(Z)-2-pentenyl]-9′-oxa-4′-azatricyclo[6.3.1.0^1.5]dodec-5′-en-10′-yl}-9-hydroxy-10-oxoundecanoic Acid] the “concentration exhibiting the same level of flower bud formation promoting activity as 100 μM compound (4)” value [1] was 0.01 µM.

In the case of `CC[C@H](C)[C@H](N)C(=O)O` [L-isoleucine, reference compound], the “flower bud formation promoting effect (number of flower buds per plant, % of control)” value [2] is reported as “not observed”.

In the case of `CC/C=C\C/C=C\CC(=O)C(O)CCCCCCCC(=O)O` (centres unmarked) [compound (4), 9-hydroxy-10-oxo-12(Z),15(Z)-octadecadienoic acid], the “flower bud formation promoting effect” value (a broad range of plants) is listed as “exhibit flower bud formation promoting effect”.

In the case of `CC/C=C\C/C=C\CC(=O)C(O)CCCCCCCC(=O)NC(C(=O)O)C(C)CC` [ketol fatty acid derivative (9), N-[9-hydroxy-10-oxo-12(Z),15(Z)-octadecadienoyl]-L-isoleucine], the “flower bud formation promoting effect (number of flower buds per plant, % of control)” value [2] is reported as “equal or higher flower bud formation promoting effect as compared with compound (4)” and the “optimum administration concentration for flower bud formation promoting activity” value ([2]; sprayed at 0.1 to 100 μM, FIG. 7) is reported as “approximately 1 μM”.
